Reference: the supplement of paper PMC4628005

What was measured:
Conditions in all cases: drug exposure time: 96 h
Sorafenib = compound: CNC(=O)c1cc(Oc2ccc(NC(=O)Nc3ccc(Cl)c(C(F)(F)F)c3)cc2)ccn1 [Sorafenib]
Procedure: (§1)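 Breast cancer cell lines were grown in RPMI 1640 with 10% FBS on collagen I-coated 96-well plates and treated for 96 h (from 24 h after seeding) with 12 dilutions per drug, in triplicate. Growth was read by sulforhodamine B total-protein staining (absorbance 570 nm) relative to diluent control, and IC50 was calculated. The top dose was 1e-5 M for most drugs; Bortezomib went to 2e-5 M and Sirolimus and 17-AAG to 2e-6 M[…].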

Lapatinib = compound: CS(=O)(=O)CCNCc1ccc(-c2ccc3ncnc(Nc4ccc(OCc5cccc(F)c5)c(Cl)c4)c3c2)o1 [Lapatinib]
Procedure: as §1

Gefitinib = compound: COc1cc2ncnc(Nc3ccc(F)c(Cl)c3)c2cc1OCCCN1CCOCC1 [Gefitinib]
Procedure: as §1

Decitabine = compound: Nc1ncn([C@H]2C[C@H](O)[C@@H](CO)O2)c(=O)n1 [Decitabine]
Procedure: as §1

Cisplatin = compound: N.N.[Cl][Pt][Cl] [Cisplatin]
Procedure: as §1

Tamoxifen = compound: CC/C(=C(\c1ccccc1)c1ccc(OCCN(C)C)cc1)c1ccccc1 [Tamoxifen]
Procedure: as §1

Vandetanib = compound: COc1cc2/c(=N/c3ccc(Br)cc3F)nc[nH]c2cc1OCC1CCN(C)CC1 [Vandetanib]
Procedure: as §1

Erlotinib = compound: C#Cc1cccc(Nc2ncnc3cc(OCCOC)c(OCCOC)cc23)c1 [Erlotinib]
Procedure: as §1

Belinostat = compound: O=C(/C=C/c1cccc(S(=O)(=O)Nc2ccccc2)c1)NO [Belinostat]
Procedure: as §1

Serdemetan = compound: c1ccc2c(CCNc3ccc(Nc4ccncc4)cc3)c[nH]c2c1 [Serdemetan]
Procedure: as §1

Sunitinib = compound: CCN(CC)CCNC(=O)c1c(C)[nH]c(/C=C2\C(=O)Nc3ccc(F)cc32)c1C [Sunitinib]
Procedure: as §1

Nutlin-3 = compound: COc1ccc(C2=N[C@@H](c3ccc(Cl)cc3)[C@@H](c3ccc(Cl)cc3)N2C(=O)N2CCNC(=O)C2)c(OC(C)C)c1 [Nutlin-3]
Procedure: as §1

Vorinostat = compound: O=C(CCCCCCC(=O)Nc1ccccc1)NO [Vorinostat]
Procedure: as §1

Tipifarnib = compound: Cn1cncc1[C@@](N)(c1ccc(Cl)cc1)c1ccc2c(c1)c(-c1cccc(Cl)c1)cc(=O)n2C [Tipifarnib]
Procedure: as §1

Azacitidine = compound: Nc1ncn([C@@H]2O[C@H](CO)[C@@H](O)[C@H]2O)c(=O)n1 [Azacitidine]
Procedure: as §1

ARQ197 = compound: O=C1NC(=O)[C@@H](c2cn3c4c(cccc24)CCC3)[C@@H]1c1c[nH]c2ccccc12 [ARQ197]
Procedure: as §1

Paclitaxel = compound: CC(=O)O[C@H]1C(=O)[C@@]2(C)[C@H]([C@H](OC(=O)c3ccccc3)[C@]3(O)C[C@H](OC(=O)[C@H](O)[C@@H](NC(=O)c4ccccc4)c4ccccc4)C(C)=C1C3(C)C)[C@]1(OC(C)=O)CO[C@@H]1C[C@@H]2O [Paclitaxel]
Procedure: as §1

5-Fluorouracil = compound: O=c1[nH]cc(F)c(=O)[nH]1 [5-Fluorouracil]
Procedure: as §1

Mitoxantrone = compound: O=C1c2c(O)ccc(O)c2C(=O)c2c(NCCNCCO)ccc(NCCNCCO)c21 [Mitoxantrone]
Procedure: as §1

Dasatinib = compound: Cc1nc(Nc2ncc(C(=O)Nc3c(C)cccc3Cl)s2)cc(N2CCN(CCO)CC2)n1 [Dasatinib]
Procedure: as §1

Methotrexate = compound: CN(Cc1cnc2nc(N)nc(N)c2n1)c1ccc(C(=O)N[C@@H](CCC(=O)O)C(=O)O)cc1 [Methotrexate]
Procedure: as §1

Panobinostat = compound: Cc1[nH]c2ccccc2c1CCNCc1ccc(/C=C/C(=O)NO)cc1 [Panobinostat]
Procedure: as §1

Quisinostat = compound: Cn1cc(CNCC2CCN(c3ncc(C(=O)NO)cn3)CC2)c2ccccc21 [Quisinostat]
Procedure: as §1

Doxorubicin = compound: COc1cccc2c1C(=O)c1c(O)c3c(c(O)c1C2=O)C[C@@](O)(C(=O)CO)C[C@@H]3O[C@H]1C[C@H](N)[C@H](O)[C@H](C)O1 [Doxorubicin]
Procedure: as §1

Brivanib = compound: Cc1cc2c(F)c(Oc3ncnn4cc(OC[C@@H](C)O)c(C)c34)ccc2[nH]1 [Brivanib]
Procedure: as §1

MI-219 = compound: CC(C)(C)C[C@H]1N[C@@H](C(=O)NCC[C@H](O)CO)[C@H](c2cccc(Cl)c2)[C@@]12C(=O)Nc1cc(Cl)c(F)cc12 [MI-219]
Procedure: as §1

Docetaxel = compound: CC(=O)O[C@@]12CO[C@@H]1C[C@H](O)[C@@]1(C)C(=O)[C@H](O)C3=C(C)[C@@H](OC(=O)[C@H](O)[C@@H](NC(=O)OC(C)(C)C)c4ccccc4)C[C@@](O)([C@@H](OC(=O)c4ccccc4)[C@H]21)C3(C)C [Docetaxel]
Procedure: as §1

17-AAG = compound: C=CCNC1=C2C[C@@H](C)C[C@H](OC)[C@H](O)[C@@H](C)/C=C(\C)[C@H](OC(N)=O)[C@@H](OC)/C=C\C=C(/C)C(=O)NC(=CC1=O)C2=O [17-AAG]
Procedure: (§2)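 Same SRB 96 h IC50 screen on breast cancer cell lines (RPMI 1640 + 10% FBS, collagen I-coated 96-well plates, triplicates, 12 dilutions), for drugs with a different dose range: Bortezomib up to 2e-5 M; Sirolimus and 17-AAG up to 2e-6 M. Sirolimus values at the 2e-6 M top dose are censored.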

Sirolimus = compound: CO[C@H]1C[C@@H]2CC[C@@H](C)[C@@](O)(O2)C(=O)C(=O)N2CCCC[C@H]2C(=O)O[C@H]([C@H](C)C[C@@H]2CC[C@@H](O)[C@H](OC)C2)CC(=O)[C@H](C)/C=C(\C)[C@@H](O)[C@@H](OC)C(=O)[C@H](C)C[C@H](C)/C=C/C=C/C=C/1C [Sirolimus]
Procedure: as §2

Bortezomib = compound: CC(C)C[C@H](NC(=O)[C@H](Cc1ccccc1)NC(=O)c1cnccn1)B(O)O [Bortezomib]
Procedure: as §2

Test System	IC50 (SRB growth assay) (Sorafenib) [nM]	IC50 (SRB growth assay) (Lapatinib) [nM]	IC50 (SRB growth assay) (Gefitinib) [nM]	IC50 (SRB growth assay) (Decitabine) [nM]	IC50 (SRB growth assay) (Cisplatin) [nM]	IC50 (SRB growth assay) (Tamoxifen) [nM]	IC50 (SRB growth assay) (Vandetanib) [nM]	IC50 (SRB growth assay) (Erlotinib) [nM]	IC50 (SRB growth assay) (Belinostat) [nM]	IC50 (SRB growth assay) (Serdemetan) [nM]	IC50 (SRB growth assay) (Sunitinib) [nM]	IC50 (SRB growth assay) (Nutlin-3) [nM]	IC50 (SRB growth assay) (Vorinostat) [nM]	IC50 (SRB growth assay) (Tipifarnib) [nM]	IC50 (SRB growth assay) (Azacitidine) [nM]	IC50 (SRB growth assay) (ARQ197) [nM]	IC50 (SRB growth assay) (Paclitaxel) [nM]	IC50 (SRB growth assay) (5-Fluorouracil) [nM]	IC50 (SRB growth assay) (Mitoxantrone) [nM]	IC50 (SRB growth assay) (Dasatinib) [nM]	IC50 (SRB growth assay) (Methotrexate) [nM]	IC50 (SRB growth assay) (Panobinostat) [nM]	IC50 (SRB growth assay) (Quisinostat) [nM]	IC50 (SRB growth assay) (Doxorubicin) [nM]	IC50 (SRB growth assay) (Brivanib) [nM]	IC50 (SRB growth assay) (MI-219) [nM]	IC50 (SRB growth assay) (Docetaxel) [nM]	IC50 (SRB growth assay) (17-AAG) [nM]	IC50 (SRB growth assay) (Sirolimus) [nM]	IC50 (SRB growth assay) (Bortezomib) [nM]
HCC 202	5170	199	8050	> 10000	> 10000	> 10000	3780	6060	487	5010	> 10000	> 10000	1130	> 10000	4630	427	4.3	7370	213	1200	47.6	16.7	6.54	76.5	> 10000	> 10000	1.72	49.5	5.17	1.51
HCC 1143	6060	2250	1040	148	> 10000	4990	1830	1080	350	921	4730	> 10000	857	749	2070	481	1.52	1980	3.93	5110	24.7	11	4.84	16.5	> 10000	> 10000	0.306	56.6	0.62	4.31
HCC 1395	6310	3750	> 10000	> 10000	> 10000	7580	7740	> 10000	1070	1520	8600	> 10000	2390	469	2180	381	1.76	3750	26.1	> 10000	1940	26.6	13	55.5	> 10000	> 10000	0.408	140	0.636	5.53
HCC 1419	3450	28.4	2680	> 10000	> 10000	4580	3540	2720	174	2450	9930	> 10000	542	550	> 10000	1210	33.3	> 10000	126	6030	164	6.31	3.8	153	> 10000	> 10000	15.2	14	0.195	4.28
